Test results from publication PMC12692861, “Biotin-Linked Ursolic Acid Conjugates as Selective Anticancer Agents and Target-Identification Tools for Cancer Therapy” (Molecules, 2025).
Where two headings read alike, the source gives them in different places. Values belong to the molecule of their own block, whether it stands above or below them.

Legend:
T24 cells = test: MTT antiproliferative assay; type: cell-based, human; conditions: for IC50: Homo sapiens, T-24, MTT, 72 h, read-out: IC50 (Mean ± SD), T24; for SI (selectivity index), T24: IC50 MCF-12A / IC50 T24
Description: (§1) The synthesized hybrid conjugates 5a–d were evaluated for their antiproliferative activity against the established human bladder cancer cell lines T24 and 5637. Test compounds were dissolved in ultrapure dimethyl sulfoxide (DMSO), diluted in cell culture media, added to cells cultured in 96-well cluster wells, and incubated for 72 h. The concentration of DMSO in culture media was maintained at < 0.05%. As previously reported, the fraction of viable cells in the culture wells was compared to that in cultures with 0.05% DMSO-only using a colorimetric assay, the Methyl Tetrazolium Bromide (MTT) reduction assay. We determined the selectivity index (SI) of the compounds 5a–d against tumor cells by comparing their cytotoxicity to that of a non-tumorigenic breast epithelial cell line, MCF-12A, as well as a non-tumorigenic, immortalized urothelial cell line, UROtsa (Table 1, and Figure 2).
(§2) The antiproliferative activities of various compounds examined in this report were measured using the MTT (3-[4,5-dimethylthiazol-2-yl]-2,5-diphenyl-tetrazolium bromide) reduction assay, as previously described. Briefly, cells were seeded at 2 × 10^3 cells per well in a 96-well plate and cultured overnight. The cells were then treated with different doses (5 µM, 10 µM, 15 µM, 20 µM, 25 µM, 30 µM, 35 µM, 40 µM in DMSO) for 72 h. Viability of the treated cultures was estimated by conversion of MTT to the insoluble formazan after 3h incubation at 37 °C and 5% CO2. The purple-colored formazan crystals were dissolved in DMSO, and absorbance was recorded at wavelengths 570/640 nm using the Bio-Rad Benchmark Plus Microplate Reader. The percent of viable cells was calculated ODtreated cells/ODcontrol cell wells × 100.

5637 cells = test: MTT antiproliferative assay; type: cell-based, human; conditions: for IC50: Homo sapiens, 72 h, MTT, read-out: IC50 (Mean ± SD), 5637; for SI (selectivity index), 5637: IC50 MCF-12A / IC50 5637
Description: as §1, §2

MB49 [1] = test: MTT antiproliferative assay; type: cell-based, murine; conditions: for SI (selectivity index), MB49: IC50 UROtsa / IC50 MB49; for IC50: Mus musculus, MB49, MTT, 72 h, read-out: IC50 ± SD, MB49
Description: The IC50 values indicate that 5c is effective across multiple bladder cancer cell lines (Figure 2 and Table 2).
as §2

MB49 cells = test: Annexin V-FITC/PI apoptosis flow cytometry; type: cell-based, murine; conditions: Mus musculus, MB49, 24 h
Description: The potential of cells treated with UA or 5c to undergo dose-dependent apoptosis was explored using quantitative flow cytometric analysis, as shown in Figure 4. Utilizing a kit that detects quantitative binding of Annexin V to externalized phosphatidyl serine during the apoptosis cascade and permeability of Propidium iodide (PI) in cells undergoing cell death, we determined the cells at various stages of cell death following 24h incubation with UA and 5c in various bladder cancer cells.
We used a fluorescence-based Annexin V binding assay to determine the fraction of the cell population undergoing early and late apoptosis due to the cytotoxicity of the drugs. Cells plated in a 60 mm dish overnight at 0.3 × 10^6 cells/well were incubated with the selected drug at several doses for 24 h. Subsequently, treated cells were labeled with FITC-Annexin V using a kit (eBioscience™ Annexin V Apoptosis Detection Kits; Invitrogen # 88-8005-72, Thermo Fisher Scientific, Seoul, Korea) as per the manufacturer’s instructions. Intact cell suspension labeled with FITC-Annexin V and PI was run on the NovoCyte Quanteon flow cytometer, and data were acquired in list mode. Acquired data were analyzed using NovoExpress software (version 1.6.1). Cells treated with Staurosporine (0.2 µM) act as a positive control.

MB49 [2] = test: Cell cycle phase fractionation by flow cytometry (PI); type: cell-based, murine; conditions: MB49, 24 h, mean ± SD n=3
Source text: Cells treated with some antiproliferative drugs are blocked from orderly progression from one stage of their mitotic cycle to the next due to inhibition of a specific stage of the cell cycle. Analysis by flow cytometry (FC) of DNA content in the nuclei of drug-treated cells is a well-established technique for evaluating the fractions of cells in each stage of the cell cycle based on their DNA content. In this study, we employed FC to examine whether treatment with UA or 5c affects the orderly cell cycle progression from G0/G1, S, and G2M before entering Mitosis (M). Figure 6 represents the effect of UA and 5c on cell cycle progression in four bladder cancer cell lines, 5637, HT-1376, T-24, and MB-49, after a […] treatment at a concentration of 12 µM. Following the treatment, nuclei suspensions from treated cells were prepared by direct cell lysis in a hypotonic solution, with simultaneous staining with PI (100 µg/mL). The resulting nuclei suspension and the samples were run on the flow cytometer and analyzed for DNA content.
Cells cultured in 35 mm diameter, 6-well cluster plates (Corning Inc., Corning, NY, USA) overnight at a density of 0.3 × 10^6 cells/well, and treated with various compounds at selected concentrations for 24 h. After completion of treatment, cells were washed twice with PBS, followed by the addition of Propidium Iodide (PI) containing […] solution [(0.1 mg/mL PI), 50mg Na-citrate, 15 µL of IGEPAL CA-630], 1 mL in each well, and incubated for 30–45 min at 37 °C and 5% CO2. After that data acquired using the NovoCyte Quanteon Flow Cytometer was analyzed using NovoExpress software (version 1.6.1).

IC50 (T24 cells): 14.2 ± 1.01 µM
Compound: CC1CCC2(C(=O)OCCCCOC(=O)CCCCC3SCC4NC(=O)NC43)CCC3(C)C(=CCC4C5(C)CCC(O)C(C)(C)C5CCC43C)C2C1C [Compound 5c, 4-((5-((3aS,4S,6aR)-2-Oxohexahydro-1H-thieno [3,4-d]imidazol-4-yl)pentanoyl)oxy) butyl 3-hydroxy-urs-12-en-28-oate]
SI (selectivity index), T24 (T24 cells): 5.85
IC50 in µM (selectivity index in parentheses), T-24 (T24 cells; IC50 UROtsa / IC50 T-24): 14.20 ± 1.01 (4.43)
IC50 (5637 cells): 11 ± 0.19 µM
SI (selectivity index), 5637 (5637 cells): 7.58
SI (selectivity index), MB49 (MB49 [1]): 4.63
IC50 (MB49 [1]): 13.6 ± 0.18 µM
viability at 10 µM (MB49 cells; MB49, 10 µM, 24 h, read-out: Q4-3 (Q3, viable) cells): 39.4%
viability at 15 µM (MB49 cells; MB49, 15 µM, 24 h, read-out: Q4-3 (Q3, viable) cells): 35.6%
Cell-Cycle Phase-Fractions G1 (MB49 [2]): 53.52 ± 1.25 % of total
Cell-Cycle Phase-Fractions G2/M (MB49 [2]): 18.43 ± 0.69 % of total
Cell-Cycle Phase-Fractions S (MB49 [2]): 28.05 ± 0.56 % of total

IC50 (T24 cells): 17.5 ± 0.98 µM
Compound: C[C@H]1[C@H](C)CC[C@]2(C(=O)O)CC[C@]3(C)C(=CC[C@@H]4[C@@]5(C)CC[C@H](O)C(C)(C)[C@@H]5CC[C@]43C)[C@H]12 [UA, Ursolic acid]
SI (selectivity index), T24 (T24 cells): 3.21
IC50 (5637 cells): 13.4 ± 0.35 µM
SI (selectivity index), 5637 (5637 cells): 4.19
SI (selectivity index), MB49 (MB49 [1]): 6.26
IC50 (MB49 [1]): 10.7 ± 0.36 µM
viability at 10 µM (MB49 cells; read-out: Q4-3 (Q3, viable) cells, MB49, 10 µM, 24 h): 74.4%
viability at 15 µM (MB49 cells; read-out: Q4-3 (Q3, viable) cells, MB49, 15 µM, 24 h): 64.5%
Cell-Cycle Phase-Fractions G1 (MB49 [2]): 59.75 ± 0.77 % of total
Cell-Cycle Phase-Fractions G2/M (MB49 [2]): 19.12 ± 1.09 % of total
Cell-Cycle Phase-Fractions S (MB49 [2]): 21.13 ± 1.49 % of total
